Here are results for 1 molecule from BindingDB's records for doi:10.1021/ja062999h (The Scripps Research Institute, 2006).

Holding throughout (conditions): pH 7.4; 22 °C
The target in test [1] is T1, Fatty-acid amide hydrolase 1 (Mus musculus, UniProt O08914).
T1 sequence (O08914 whole entry): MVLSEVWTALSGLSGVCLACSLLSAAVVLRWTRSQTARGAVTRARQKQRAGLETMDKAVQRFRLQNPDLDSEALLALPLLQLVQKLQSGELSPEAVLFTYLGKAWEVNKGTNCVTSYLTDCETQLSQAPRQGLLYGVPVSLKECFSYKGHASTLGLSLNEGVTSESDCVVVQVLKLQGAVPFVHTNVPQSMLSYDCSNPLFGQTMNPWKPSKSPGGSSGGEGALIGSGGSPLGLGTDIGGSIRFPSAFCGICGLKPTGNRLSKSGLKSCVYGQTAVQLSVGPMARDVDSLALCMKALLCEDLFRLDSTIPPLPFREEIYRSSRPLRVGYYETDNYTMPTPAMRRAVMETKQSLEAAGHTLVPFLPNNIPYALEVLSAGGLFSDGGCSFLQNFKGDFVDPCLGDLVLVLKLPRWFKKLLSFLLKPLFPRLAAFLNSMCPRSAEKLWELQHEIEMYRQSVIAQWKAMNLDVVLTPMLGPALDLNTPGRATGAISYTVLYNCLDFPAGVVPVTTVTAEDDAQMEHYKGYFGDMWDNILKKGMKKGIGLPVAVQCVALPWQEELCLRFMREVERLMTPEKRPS
Description: FAAH Competitive ABPP Using FP-Rhodamine. As to the method:
Mouse brain membrane proteomes were preincubated with varying concentrations of inhibitors for 10 min prior to the addition of a rhodamine-tagged fluorophosphonate (FP-rhodamine). Reactions were quenched after 10 min, subjected to SDS-PAGE, and visualized in-gel using a flatbed fluorescence scanner. Labeled proteins were quantified by measuring integrated band intensities. Dose response curves obtained from three trials at each inhibitor concentration were fit using Prism software (GraphPad) to

Test [2] addresses T2, Neutral cholesterol ester hydrolase 1 (Mus musculus, UniProt Q8BLF1).
T2 sequence (Q8BLF1 whole entry): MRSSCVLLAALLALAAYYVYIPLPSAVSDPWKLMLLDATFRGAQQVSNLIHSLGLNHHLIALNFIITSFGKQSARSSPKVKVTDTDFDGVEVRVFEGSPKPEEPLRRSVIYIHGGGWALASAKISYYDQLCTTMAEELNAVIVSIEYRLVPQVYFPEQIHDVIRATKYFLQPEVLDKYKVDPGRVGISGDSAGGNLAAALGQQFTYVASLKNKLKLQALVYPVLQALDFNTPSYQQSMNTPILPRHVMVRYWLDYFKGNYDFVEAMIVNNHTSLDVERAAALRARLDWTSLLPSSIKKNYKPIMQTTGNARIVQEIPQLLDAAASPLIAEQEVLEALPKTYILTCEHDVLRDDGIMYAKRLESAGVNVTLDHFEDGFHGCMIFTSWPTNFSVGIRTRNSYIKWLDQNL
Description: Serine Hydrolase Activity Assay. An excerpt:
(§1) Serine hydrolase targets were recombinantly expressed in COS-7 cells by transient transfection. IC50 values were obtained by competitive ABPP with FP-rhodamine.

In a further test the target is T3, Monoglyceride lipase (Mus musculus, UniProt O35678).
T3 sequence (O35678 whole entry): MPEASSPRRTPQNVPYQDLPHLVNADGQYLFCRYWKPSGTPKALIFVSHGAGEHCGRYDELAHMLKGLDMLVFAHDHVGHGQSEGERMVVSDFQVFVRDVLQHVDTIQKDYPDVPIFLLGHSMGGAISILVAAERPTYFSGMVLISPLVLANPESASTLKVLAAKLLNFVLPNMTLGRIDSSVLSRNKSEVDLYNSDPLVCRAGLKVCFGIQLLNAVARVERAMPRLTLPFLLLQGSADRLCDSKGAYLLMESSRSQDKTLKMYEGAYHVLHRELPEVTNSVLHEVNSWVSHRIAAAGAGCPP
Description: Serine Hydrolase Activity Assay.
Description: as §1

The target in test [3] is T4, Monoacylglycerol lipase ABHD6 (Mus musculus, UniProt Q8R2Y0).
T4 sequence (Q8R2Y0 whole entry): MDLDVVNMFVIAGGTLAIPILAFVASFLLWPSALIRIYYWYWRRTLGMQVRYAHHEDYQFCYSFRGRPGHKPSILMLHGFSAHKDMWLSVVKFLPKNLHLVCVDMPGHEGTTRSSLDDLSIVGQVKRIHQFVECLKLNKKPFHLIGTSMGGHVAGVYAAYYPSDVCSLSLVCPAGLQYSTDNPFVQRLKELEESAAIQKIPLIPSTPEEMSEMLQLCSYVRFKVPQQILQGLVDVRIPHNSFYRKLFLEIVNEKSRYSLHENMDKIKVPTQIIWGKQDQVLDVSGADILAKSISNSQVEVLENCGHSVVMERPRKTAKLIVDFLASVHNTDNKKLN
Description: Serine Hydrolase Activity Assay.
Description: as §1

For orientation: IC50 means the concentration needed to halve the response being measured. A low value points to greater potency in that assay. For the molecule `CN(C)C(=O)n1nnnc1Cc1ccc(-c2ccccc2)cc1` [N,N-dimethyl-5-[(4-phenylphenyl)methyl]-1H-1,2,3,4-tetrazole-1-carboxamide], the IC50 in test [1] came out at 13 nM; in test [2], 8.2 nM; on Monoglyceride lipase it was 5.3 nM; in test [3] it was 0.09 nM.
